Test results: patent US8906943B2, “Synthetic compounds and methods to decrease nicotine self-administration” (priority 2010, dated 2014)
Like-named read-outs stand apart in the source and are kept apart here. Marks after values point to notes of the source that are not given here.

Assays:
CYP2B1 = CYP2B1 (Rattus norvegicus (Rat), UniProt P00176); test: Inhibition of rat CYP2B1; assay type: biochemical; conditions: pH 7.5, Inhibitor present at 100 μM, read-out: rCYP2B1 % inhibition
[1] = system: nicotine self-administration in male Wistar rats; test: Nicotine i.v. self-administration (IVSA) in rats, FR1 schedule; assay type: in vivo, rat; conditions: for Number of nicotine infusions, Compound (15 mg/kg): 15 mg/kg i.p. 30 minutes before i.v. self-administration of 0.03 mg/kg/infusion nicotine; for % Change (decrease in nicotine self-administration): versus vehicle; for ED50: Rattus norvegicus, iv, rats, read-out: apparent ED50, nicotine IVSA; for effect on nicotine intake, ANOVA of dose response: 1-hour self-administration sessions; for Number of nicotine infusions, Compound (25 mg/kg): 25 mg/kg i.p. 30 minutes before i.v. self-administration of 0.03 mg/kg/infusion nicotine
Description: Male, Wistar rats trained in a paradigm of nicotine i.v. self-administration (IVSA) generally related to a modification of a previously published protocol (Watkins et al., Pharmacol Biochem Behavior 62, 743-751 (1999)). Rats were treated with test compounds I-7. […] At 3.0 mg/kg, responding for nicotine was decreased by 62% when compared to control (vehicle-treated) conditions. […] On the basis of these initial studies, more extensive work was done and IVSA studies of compounds 8, 10 and 11 were conducted.
As with all the compounds examined in this study, there was no carry-over effect. […] The dose-effect function for treatment of 11 on nicotine self-administration is shown in [FIG. 2].

hCYP2B6 = hCYP2B6 (Homo sapiens (Human), UniProt P20813); test: CYP2B6 inhibition, vivid blue substrate O-dealkylation; assay type: biochemical; conditions: for IC50: ND = no detectable inhibition
hCYP2B6, sequence (P20813 whole entry): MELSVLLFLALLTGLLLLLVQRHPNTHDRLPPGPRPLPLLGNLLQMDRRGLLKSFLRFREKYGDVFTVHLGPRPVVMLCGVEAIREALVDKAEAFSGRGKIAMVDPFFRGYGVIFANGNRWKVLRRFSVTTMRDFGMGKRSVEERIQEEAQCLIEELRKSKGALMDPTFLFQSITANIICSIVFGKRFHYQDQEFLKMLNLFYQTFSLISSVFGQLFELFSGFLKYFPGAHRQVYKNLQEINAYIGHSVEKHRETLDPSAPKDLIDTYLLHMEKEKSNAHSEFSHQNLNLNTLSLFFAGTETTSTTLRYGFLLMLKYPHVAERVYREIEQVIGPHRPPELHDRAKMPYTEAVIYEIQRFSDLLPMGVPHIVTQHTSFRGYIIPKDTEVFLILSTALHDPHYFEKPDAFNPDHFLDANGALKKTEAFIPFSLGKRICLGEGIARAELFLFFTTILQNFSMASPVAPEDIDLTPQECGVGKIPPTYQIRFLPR
Description: (§1) To gain insight into the selectivity of the synthetic compounds for inhibition of other CYPs, we examined the major CYPs present in human liver. […] A typical incubation mixture (final volume 0.25 mL) contained 50 mM Tris or KPhos buffer (pH 7.5), 0.5 mM NADP^+, 2.0 mM G6P, 1 U of G6P dehydrogenase and 0.6 mg DETAPAC and the inhibitor was added last to minimize interaction with the protein. After mixing on ice, the reaction was initiated by the addition of substrate and incubated at 37° C. with shaking in air. Organic extracts were analyzed by fluorescence (for fluorometric substrates) or injected onto a Hitachi L-7100 system equipped with a Hitachi L-7400 UV detector. Separations were done with an Altex Ultrasphere ODS (4.6 mm×250 mm, 5 μm) column and analytes were eluted with an isocratic solvent system consisting of water/acetonitrile/methanol (30:10:60, v/v/v) at a flow rate of 1.0 mL/min. Quantification of substrate and metabolite was determined from peak areas of the chromatogram and comparison with standard curves. IC50 values were determined with GraphPad Prism and kinetic data was converted into IC50 values. Each kinetic determination was reported as the mean±SD as described below. […] To measure CYP2A6 activity, coumarin 7-hydroxylation was determined as described in Denton et al., supra. To measure CYP3A4 activity, testosterone 6-hydroxylation was determined as described in Denton et al., supra. To measure CYP2E1, CYP2B6, CYP2C9, CYP2C19 and CYP2D6 activity, isozyme specific vivid blue substrate O-dealkylation was determined via a modified PanVera Vivid Assay Protocol as described in Denton et al., supra.

CYP2E1 = CYP2E1 (Homo sapiens (Human), UniProt P05181); test: CYP2E1 inhibition, vivid blue substrate O-dealkylation; assay type: biochemical; conditions: for inhibition of human CYP 2E1 (in words): 10 μM; for inhibition at 10 µM: human, pH 7.5, probe isozyme specific vivid blue substrate (O-dealkylation), mean of triplicate, read-out: CYP2E1 Percent Inhibition
CYP2E1, sequence (P05181 whole entry): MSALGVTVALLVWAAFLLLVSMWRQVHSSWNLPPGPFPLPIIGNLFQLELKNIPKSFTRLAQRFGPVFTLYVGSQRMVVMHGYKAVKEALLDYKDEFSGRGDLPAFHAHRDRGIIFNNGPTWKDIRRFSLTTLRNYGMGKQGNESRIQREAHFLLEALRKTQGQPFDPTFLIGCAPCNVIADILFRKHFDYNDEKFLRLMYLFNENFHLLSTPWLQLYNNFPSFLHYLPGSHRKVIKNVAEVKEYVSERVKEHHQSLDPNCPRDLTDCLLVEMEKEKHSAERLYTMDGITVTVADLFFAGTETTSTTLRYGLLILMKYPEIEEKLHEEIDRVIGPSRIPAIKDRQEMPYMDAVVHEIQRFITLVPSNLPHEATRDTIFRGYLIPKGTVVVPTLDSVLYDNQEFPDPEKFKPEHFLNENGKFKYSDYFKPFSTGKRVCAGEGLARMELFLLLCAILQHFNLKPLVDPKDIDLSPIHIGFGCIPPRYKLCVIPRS
Description: as §1

food intake in rats = test: Order and food effects, operant food sessions; assay type: in vivo, rat; conditions: for Food Effects: mean ± SEM
Source text: The conclusion is that the effect of 10 and 11 was selective and highly efficacious on a biological target and not a promiscuous non-specific behavioral effect.

CYP2C9 = CYP2C9 (Homo sapiens (Human), UniProt P11712); test: CYP2C9 inhibition, vivid blue substrate O-dealkylation; assay type: biochemical; conditions: pH 7.5, probe isozyme specific vivid blue substrate (O-dealkylation), mean of triplicate, read-out: CYP2C9 Percent Inhibition
CYP2C9, sequence (P11712 whole entry): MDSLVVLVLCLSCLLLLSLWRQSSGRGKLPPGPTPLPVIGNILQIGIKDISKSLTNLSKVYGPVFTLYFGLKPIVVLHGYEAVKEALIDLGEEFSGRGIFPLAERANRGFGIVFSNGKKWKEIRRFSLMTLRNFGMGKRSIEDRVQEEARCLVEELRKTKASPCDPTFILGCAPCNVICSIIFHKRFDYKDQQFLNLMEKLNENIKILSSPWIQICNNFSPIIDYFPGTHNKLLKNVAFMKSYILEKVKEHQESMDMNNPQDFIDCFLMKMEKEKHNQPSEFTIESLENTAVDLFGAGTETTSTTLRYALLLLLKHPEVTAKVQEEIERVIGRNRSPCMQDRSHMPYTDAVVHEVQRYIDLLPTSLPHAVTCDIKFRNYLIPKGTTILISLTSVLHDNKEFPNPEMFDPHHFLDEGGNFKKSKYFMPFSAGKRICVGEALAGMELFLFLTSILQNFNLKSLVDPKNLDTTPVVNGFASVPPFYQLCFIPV
Description: as §1

CYP2C19 = CYP2C19 (Homo sapiens (Human), UniProt P33261); test: CYP2C19 inhibition, vivid blue substrate O-dealkylation; assay type: biochemical; conditions: pH 7.5, probe isozyme specific vivid blue substrate (O-dealkylation), mean of triplicate, read-out: CYP2C19 Percent Inhibition
CYP2C19, sequence (P33261 whole entry): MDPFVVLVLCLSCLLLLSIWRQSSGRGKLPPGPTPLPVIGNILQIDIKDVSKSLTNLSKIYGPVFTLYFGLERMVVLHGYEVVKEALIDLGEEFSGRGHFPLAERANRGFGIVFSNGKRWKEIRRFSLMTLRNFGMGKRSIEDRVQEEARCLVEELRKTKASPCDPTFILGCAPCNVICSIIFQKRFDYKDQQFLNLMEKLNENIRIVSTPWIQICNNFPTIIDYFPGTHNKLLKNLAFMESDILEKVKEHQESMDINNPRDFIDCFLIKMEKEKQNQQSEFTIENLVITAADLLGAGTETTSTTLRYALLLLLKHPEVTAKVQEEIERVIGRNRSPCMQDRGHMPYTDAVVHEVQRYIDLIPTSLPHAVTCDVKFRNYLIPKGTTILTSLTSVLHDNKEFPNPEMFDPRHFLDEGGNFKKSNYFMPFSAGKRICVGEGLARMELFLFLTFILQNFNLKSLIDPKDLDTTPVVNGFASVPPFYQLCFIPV
Description: as §1

CYP2D6 = CYP2D6 (Homo sapiens (Human), UniProt P10635); test: CYP2D6 inhibition, vivid blue substrate O-dealkylation; assay type: biochemical; conditions: pH 7.5, probe isozyme specific vivid blue substrate (O-dealkylation), mean of triplicate, read-out: CYP2D6 Percent Inhibition
CYP2D6, sequence (P10635 whole entry): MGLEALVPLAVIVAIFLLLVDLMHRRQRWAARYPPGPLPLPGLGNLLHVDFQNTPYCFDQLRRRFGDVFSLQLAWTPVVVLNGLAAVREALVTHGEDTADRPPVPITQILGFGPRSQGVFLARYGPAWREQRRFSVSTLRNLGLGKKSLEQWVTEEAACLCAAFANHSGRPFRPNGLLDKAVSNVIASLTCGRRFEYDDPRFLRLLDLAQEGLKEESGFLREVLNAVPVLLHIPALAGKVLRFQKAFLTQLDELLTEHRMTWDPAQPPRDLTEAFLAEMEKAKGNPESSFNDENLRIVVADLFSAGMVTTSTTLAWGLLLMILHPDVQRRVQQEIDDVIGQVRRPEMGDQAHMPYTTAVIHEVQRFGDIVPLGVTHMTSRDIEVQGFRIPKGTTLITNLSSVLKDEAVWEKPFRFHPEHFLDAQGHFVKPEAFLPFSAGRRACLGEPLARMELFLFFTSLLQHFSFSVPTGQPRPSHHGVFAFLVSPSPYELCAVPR
Description: as §1

CYP3A4 = CYP3A4 (Homo sapiens (Human), UniProt P08684); test: in vitro; conditions: pH 7.5
CYP3A4, sequence (P08684 whole entry): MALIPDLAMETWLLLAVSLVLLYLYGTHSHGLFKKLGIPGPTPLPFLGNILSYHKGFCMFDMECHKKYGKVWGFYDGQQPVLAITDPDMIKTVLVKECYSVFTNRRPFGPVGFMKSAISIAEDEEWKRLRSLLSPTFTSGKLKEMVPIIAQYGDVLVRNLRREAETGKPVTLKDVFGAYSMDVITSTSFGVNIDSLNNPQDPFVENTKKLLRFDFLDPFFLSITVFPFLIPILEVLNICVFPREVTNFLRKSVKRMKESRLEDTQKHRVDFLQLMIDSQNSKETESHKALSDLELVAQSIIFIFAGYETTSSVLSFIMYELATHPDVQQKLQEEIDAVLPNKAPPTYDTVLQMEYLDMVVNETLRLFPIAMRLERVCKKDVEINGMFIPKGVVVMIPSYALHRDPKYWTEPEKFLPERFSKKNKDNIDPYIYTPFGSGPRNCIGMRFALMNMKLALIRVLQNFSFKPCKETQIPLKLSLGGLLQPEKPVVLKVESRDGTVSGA
Description: as §1, with “Separations were done with an Altex Ultrasphere ODS (4.6 mm×250 mm, 5 μm) column and analytes were eluted with an isocratic solvent system consisting of water/acetonitrile/methanol (30:10:60, v/v/v) at a flow rate of 1.0 mL/min.” left out, “values.” for “values. Each kinetic determination was reported as the mean±SD as described below.”

human CYP2A6 = human CYP2A6 (Homo sapiens (Human), UniProt P11509); test: Inhibition of human CYP2A6-mediated coumarin 7-hydroxylation; assay type: biochemical; conditions: for Ki: read-out: Ki human CYP 2A6
human CYP2A6, sequence (P11509 whole entry): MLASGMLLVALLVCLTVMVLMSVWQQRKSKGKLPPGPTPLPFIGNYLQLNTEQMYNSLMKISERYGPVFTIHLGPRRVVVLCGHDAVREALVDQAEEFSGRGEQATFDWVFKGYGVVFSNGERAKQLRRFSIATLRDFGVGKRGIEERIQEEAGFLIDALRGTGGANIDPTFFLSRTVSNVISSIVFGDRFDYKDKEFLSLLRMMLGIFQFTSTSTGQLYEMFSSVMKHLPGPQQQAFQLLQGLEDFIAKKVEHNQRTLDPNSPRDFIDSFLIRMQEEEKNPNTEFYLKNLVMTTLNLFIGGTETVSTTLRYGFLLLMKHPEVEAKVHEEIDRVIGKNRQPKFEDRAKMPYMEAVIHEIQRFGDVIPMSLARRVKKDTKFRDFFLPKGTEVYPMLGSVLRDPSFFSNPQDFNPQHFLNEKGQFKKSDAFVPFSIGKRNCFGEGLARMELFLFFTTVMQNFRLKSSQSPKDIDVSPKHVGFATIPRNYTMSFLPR
Description: Our first studies were with highly purified human CYP2A6 that provided a convenient and relatively high-throughput measure of CYP2A6 inhibition. Full dose-response IC50 values (nine concentrations) were determined (Table 1).

[2] = Table 1, purified human CYP2A6, nine concentrations, read-out: hCYP2A6 IC50
[3] = Table 3, read-out: CYP2A6 Inhibition IC50

CYP2B1, sequence (P00176 whole entry, the tested form may be a part): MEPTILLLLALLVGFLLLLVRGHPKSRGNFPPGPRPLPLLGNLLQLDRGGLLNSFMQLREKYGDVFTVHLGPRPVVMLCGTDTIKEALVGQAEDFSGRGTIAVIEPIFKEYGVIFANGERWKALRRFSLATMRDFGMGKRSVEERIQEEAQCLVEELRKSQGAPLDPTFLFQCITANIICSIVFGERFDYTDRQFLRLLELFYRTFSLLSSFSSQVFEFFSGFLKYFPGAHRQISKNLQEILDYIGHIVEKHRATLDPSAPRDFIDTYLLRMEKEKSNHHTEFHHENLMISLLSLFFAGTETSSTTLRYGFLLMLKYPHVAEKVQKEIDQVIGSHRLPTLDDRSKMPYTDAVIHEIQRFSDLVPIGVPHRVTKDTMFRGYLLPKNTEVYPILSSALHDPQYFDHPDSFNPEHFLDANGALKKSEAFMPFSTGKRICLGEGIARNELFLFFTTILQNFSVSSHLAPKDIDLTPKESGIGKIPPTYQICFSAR

c1cc(CCn2ccnc2)ccn1 [Compound 9, N-(4-Pyridylethyl)imidazole]
inhibition at 100 µM (CYP2B1): 53.5% | nicotine self-administration under a FR schedule (in words) ([1]; 15 mg/kg, i.p., 30-min prior): decreased nicotine self-administration

NCc1ccc(-c2cccnc2)s1 [Compound 4]
inhibition at 100 µM (CYP2B1): 42.7% | Number of nicotine infusions, Compound (15 mg/kg) ([1]; FR1): 11.8 ± 3.2 | % Change (decrease in nicotine self-administration) ([1]; 15 mg/kg i.p.): 23.4%

c1cn(CC2CCCCC2)cn1 [Compound 10, N-(Cyclohexylmethyl)imidazole]
inhibition of human CYP 2B6 (in words) (hCYP2B6): inhibited human CYP 2B6 to a certain extent | IC50 (hCYP2B6): 11000 nM | inhibition of human CYP 2E1 (in words) (CYP2E1): some inhibition | inhibition at 10 µM (CYP2E1): 89% | inhibition at 100 µM (CYP2B1): 56.9% | Food Effects (food intake in rats; Dose 0.5 mg/kg): 80 ± 1.8 | Food Effects (food intake in rats; Dose 1.58 mg/kg): 79 ± 2.5 | Food Effects (food intake in rats; Dose 5.0 mg/kg): 77 ± 3.2 | inhibition at 10 µM (CYP2C9): 44% | inhibition at 10 µM (CYP2C19): 24% | inhibition at 10 µM (CYP2D6): 34% | ED50 [1]: 4 mg/kg | effect on nicotine intake, ANOVA of dose response ([1]; i.p.): significant effect | inhibition at 10 µM (CYP3A4): 27% | IC50 (human CYP2A6; [2]): 170000 nM

c1ccc(CCn2ccnc2)cc1 [Compound 11, 1-Phenethyl-2-imidazol-1-yl]
inhibition of human CYP 2B6 (in words) (hCYP2B6): inhibited human CYP 2B6 to a certain extent | IC50 (hCYP2B6): > 20000 nM | inhibition of human CYP 2E1 (in words) (CYP2E1): some inhibition | inhibition at 10 µM (CYP2E1): 88% | inhibition at 100 µM (CYP2B1): 67.7% | effect on food intake (in words) (food intake in rats; 5 mg/kg, 30-min operant food sessions): significant suppression | Food Effects (food intake in rats; Dose 2.8 mg/kg): 79 ± 1.3 | Food Effects (food intake in rats; Dose 5.0 mg/kg): 63 ± 5.6 | inhibition at 10 µM (CYP2C9): 13% | inhibition at 10 µM (CYP2C19): 21% | inhibition at 10 µM (CYP2D6): 62% | ED50 [1]: 3 mg/kg | effect on nicotine intake, ANOVA of dose response ([1]; i.p.): significant effect | inhibition at 10 µM (CYP3A4): 63% | IC50 (human CYP2A6; [2]): 618000 nM | IC50 (human CYP2A6; [3]): 618 nM

N[C@@H]1C[C@H]1c1ccccc1 (racemic) [Tranylcypromine, reference compound]
IC50 (human CYP2A6; [3]): 233 nM

c1cncc(-c2c[nH]cn2)c1 [Compound 8]
effect on nicotine intake, ANOVA of dose response ([1]; i.p.): failed to reveal a significant effect | IC50 (human CYP2A6; [2]): 800000 nM | IC50 (human CYP2A6; [3]): 800 nM

Clc1ccc(Cn2ccnc2)cc1 [Compound 3, N-(4-Chlorobenzyl)imidazole]
inhibition of human CYP 2B6 (in words) (hCYP2B6): inhibited human CYP 2B6 to a certain extent | IC50 (hCYP2B6): 12000 nM | inhibition of human CYP 2E1 (in words) (CYP2E1): some inhibition | inhibition at 10 µM (CYP2E1): 87% | inhibition at 100 µM (CYP2B1): 35.5% | inhibition at 10 µM (CYP2C9): 32% | inhibition at 10 µM (CYP2C19): 43% | inhibition at 10 µM (CYP2D6): 48% | Number of nicotine infusions, Compound (15 mg/kg) ([1]; FR1): 13.0 ± 2.7 | % Change (decrease in nicotine self-administration) ([1]; 15 mg/kg i.p.): 23.6% | IC50 (human CYP2A6; [2]): 160 nM | Ki (human CYP2A6): 80 nM

NCc1cc(-c2cccnc2)n[nH]1 [Compound 1]
IC50 (hCYP2B6): 66400 nM | inhibition at 100 µM (CYP2B1): 53.8% | Number of nicotine infusions, Compound (15 mg/kg) ([1]; FR1): 11.6 ± 2.9 | % Change (decrease in nicotine self-administration) ([1]; 15 mg/kg i.p.): 14.7% | IC50 (human CYP2A6; [2]): 600 nM

NCc1ccc(-c2cccnc2)o1 [Compound 6]
inhibition at 100 µM (CYP2B1): 46.6% | Number of nicotine infusions, Compound (15 mg/kg) ([1]; FR1): 16.8 ± 2.3^d | % Change (decrease in nicotine self-administration) ([1]; 15 mg/kg i.p.): 27.6% | Number of nicotine infusions, Compound (25 mg/kg) ([1]; FR1): 8.3 ± 2.1^d | % Change (decrease in nicotine self-administration) ([1]; 25 mg/kg i.p.): 64.2% | IC50 (human CYP2A6; [2]): 200 nM

Cc1ccsc1-c1cccnc1 [Compound 5]
inhibition at 100 µM (CYP2B1): 47.9% | Number of nicotine infusions, Compound (15 mg/kg) ([1]; FR1): 8.8 ± 1.6 | Number of nicotine infusions, Compound (25 mg/kg) ([1]; FR1): 1.6 ± 0.7^d | IC50 (human CYP2A6; [2]): […]

c1cncc(Cn2ccnc2)c1 [Compound 7, N-(3-Pyridylmethyl)imidazole]
inhibition at 100 µM (CYP2B1): 43.3% | Number of nicotine infusions, Compound (15 mg/kg) ([1]; FR1): 7.5 ± 1.9^d | % Change (decrease in nicotine self-administration) ([1]; 15 mg/kg i.p.): 28.6% | IC50 (human CYP2A6; [2]): > 200000 nM | Ki (human CYP2A6): > 200000 nM

CNC1(C)C2CCC(C2)C1(C)C (centres unmarked) [Mecamylamine, reference compound]
decrease in responding for nicotine versus vehicle ([1]; 3.0 mg/kg, s.c., 30 minutes before the session, FR1): 62%

NCc1cc(-c2cccnc2)no1 [Compound 2]
IC50 (hCYP2B6): 67400 nM | inhibition at 100 µM (CYP2B1): 55.3% | Number of nicotine infusions, Compound (15 mg/kg) ([1]; FR1): 8.4 ± 1.7 | % Change (decrease in nicotine self-administration) ([1]; 15 mg/kg i.p.): 19.2% | Number of nicotine infusions, Compound (25 mg/kg) ([1]; FR1): 5.6 ± 1.6^d | % Change (decrease in nicotine self-administration) ([1]; 25 mg/kg i.p.): 60. % | IC50 (human CYP2A6; [2]): 800 nM
